This is an account of results in ChEMBL document CHEMBL3407472, “Multi-parameter optimization of aza-follow-ups to BI 207524, a thumb pocket 1 HCV NS5B polymerase inhibitor. Part 2: Impact of lipophilicity on promiscuity and in vivo toxicity” (Bioorg Med Chem Lett, 2015).

Series [1] in a line: Bioavailability in dog at 5 mg/kg, po and 2 mg/kg, iv. Format: ADME, organism-based, Canis lupus familiaris. The following applies: in vivo.
The nature of series [2]: AUC in rat at 5 mg/kg, po and 2 mg/kg, iv. Type of series: ADME, organism-based. The following applies: plasma.
A short description of series [3]: Half life in rat liver microsomes at 2 uM. Type of series: ADME.
Series [4] can be described thus: Lipophilicity, log D of the compound. Format: physicochemical. The following applies: octanol/water.
A short description of series [5]: AUC in dog at 5 mg/kg, po and 2 mg/kg, iv. Type of series: ADME, organism-based, Canis lupus familiaris. The settings on record: plasma.
Series [6] can be described thus: Bioavailability in rat at 5 mg/kg, po and 2 mg/kg, iv. Type of series: ADME, organism-based. The settings on record: in vivo.
Series [7] in a line: Volume of distribution at steady state in cynomolgous monkey at 5 mg/kg, po and 2 mg/kg, iv. Format: ADME, organism-based, Macaca fascicularis. The following applies: cynomolgus monkey, in vivo, read-out: Vdss.
The nature of series [8]: Half life in cynomolgous monkey at 5 mg/kg, po and 2 mg/kg, iv. Type of series: ADME, organism-based, Macaca fascicularis. The settings on record: cynomolgus monkey, in vivo.
Series [9] has as its target 5-hydroxytryptamine receptor 2A (Homo sapiens, UniProt P28223). Kind of series: Inhibition of serotonin 5-HT2A receptor (unknown origin).
A short description of series [10]: Cmax in dog at 5 mg/kg, po and 2 mg/kg, iv. Format: ADME, organism-based, Canis lupus familiaris. The settings on record: in vivo.
A further series deals with T1, Cathepsin G (Homo sapiens, UniProt P08311).
T1 sequence (P08311 whole entry): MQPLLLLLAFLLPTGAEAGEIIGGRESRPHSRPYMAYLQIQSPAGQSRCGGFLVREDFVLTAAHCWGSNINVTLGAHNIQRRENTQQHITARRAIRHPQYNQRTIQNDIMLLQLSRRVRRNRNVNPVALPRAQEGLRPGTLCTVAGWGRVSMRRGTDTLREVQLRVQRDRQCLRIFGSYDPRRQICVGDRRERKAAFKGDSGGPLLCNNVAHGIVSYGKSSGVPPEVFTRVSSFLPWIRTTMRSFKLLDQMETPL
Kind of series: Inhibition of cathepsin G (unknown origin).

Series [11] is described as follows: Half life in rat at 5 mg/kg, po and 2 mg/kg, iv. Type of series: ADME, organism-based. The following applies: in vivo.
Series [12] can be described thus: Clearance in cynomolgous monkey at 5 mg/kg, po and 2 mg/kg, iv. Type of series: ADME, organism-based, Macaca fascicularis. The following applies: cynomolgus monkey, in vivo.
Series [13] is described as follows: Half life in dog at 5 mg/kg, po and 2 mg/kg, iv. Format: ADME, organism-based, Canis lupus familiaris. The following applies: in vivo.
Series [14] can be described thus: Volume of distribution at steady state in dog at 5 mg/kg, po and 2 mg/kg, iv. Type of series: ADME, organism-based, Canis lupus familiaris. The settings on record: in vivo, read-out: Vdss.
The subject of series [15] is Hepatitis C virus. Description: Antiviral activity against Hepatitis C virus genotype 1b infected in human Huh cells assessed as inhibition of viral replication by RT-PCR-based replicon assay. Format: functional, cell-based, Hepacivirus hominis.
Series [16] can be described thus: Bioavailability in cynomolgous monkey at 5 mg/kg, po and 2 mg/kg, iv. The settings on record: cynomolgus monkey, in vivo. Type of series: ADME, organism-based, Macaca fascicularis.
The nature of series [17]: Clearance in dog at 5 mg/kg, po and 2 mg/kg, iv. Type of series: ADME, organism-based, Canis lupus familiaris. The settings on record: in vivo.
Series [18] is described as follows: Cmax in rat at 2 mg/kg, po each in 0.5% Methylcellulose and 0.3% Tween-80 and 1% N-methylpyrrolidone. The settings on record: in vivo. Format: ADME, organism-based. Details: dose 2 mg/kg, route oral.
A short description of series [19]: Cmax in cynomolgous monkey at 5 mg/kg, po and 2 mg/kg, iv. Type of series: ADME, organism-based, Macaca fascicularis. The settings on record: cynomolgus monkey, in vivo.
A short description of series [20]: AUC in cynomolgous monkey at 5 mg/kg, po and 2 mg/kg, iv. Format: ADME, organism-based, Macaca fascicularis. The settings on record: cynomolgus monkey, plasma.
The nature of series [21]: Half life in cynomolgous monkey liver microsomes at 2 uM. Type of series: ADME, Macaca fascicularis. The following applies: cynomolgus monkey. A general note: Microsomes from liver hold many membrane-bound enzymes, among them those of drug oxidation.
The nature of series [22]: Volume of distribution at steady state in rat at 5 mg/kg, po and 2 mg/kg, iv. Format: ADME, organism-based. The settings on record: in vivo, read-out: Vdss.
Series [23] in a line: Cmax in rat at 5 mg/kg, po and 2 mg/kg, iv. Format: ADME, organism-based. The settings on record: in vivo.
Series [24] deals with T2, Amine oxidase [flavin-containing] A (Homo sapiens, UniProt P21397).
T2 sequence (P21397 whole entry): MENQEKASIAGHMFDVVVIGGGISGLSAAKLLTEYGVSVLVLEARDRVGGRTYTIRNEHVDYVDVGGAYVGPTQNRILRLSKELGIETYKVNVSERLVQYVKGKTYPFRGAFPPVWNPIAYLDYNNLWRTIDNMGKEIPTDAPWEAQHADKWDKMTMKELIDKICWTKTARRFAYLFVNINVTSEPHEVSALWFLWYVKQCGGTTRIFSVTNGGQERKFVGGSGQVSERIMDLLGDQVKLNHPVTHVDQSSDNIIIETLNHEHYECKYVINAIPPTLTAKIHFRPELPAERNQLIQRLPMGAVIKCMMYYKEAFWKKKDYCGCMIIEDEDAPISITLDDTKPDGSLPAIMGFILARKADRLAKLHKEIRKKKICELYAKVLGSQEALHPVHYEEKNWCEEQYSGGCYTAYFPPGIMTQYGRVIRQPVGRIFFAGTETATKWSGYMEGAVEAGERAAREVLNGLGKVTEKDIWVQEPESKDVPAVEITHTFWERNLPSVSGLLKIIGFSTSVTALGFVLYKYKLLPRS
Kind of series: Inhibition of MAO-A (unknown origin).

A short description of series [25]: Half life in human liver microsomes at 2 uM. Format: ADME.
Series [26] in a line: Lipophilicity, log D of the compound at pH 7.4. Type of series: physicochemical. The settings on record: buffer.
Series [27] has as its system Hepatitis C virus. Description: Antiviral activity against Hepatitis C virus genotype 1a infected in human Huh cells assessed as inhibition of viral replication by RT-PCR-based replicon assay. Format: functional, cell-based, Hepacivirus hominis. The settings on record: subtype 1a. Background: In antiviral work, replicon cells carry a viral genome segment that copies itself.

The nature of series [28]: Ratio of drug uptake in liver to plasma of rat at 5 mg/kg, po and 2 mg/kg, iv after 6 to 8 hrs. Format: ADME, organism-based.
Another series concerns the target D(1A) dopamine receptor (Homo sapiens, UniProt P21728). Description: Inhibition of dopamine D1 receptor (unknown origin).
Series [29] is described as follows: Clearance in rat at 5 mg/kg, po and 2 mg/kg, iv. Format: ADME, organism-based. The following applies: in vivo.
A short description of series [30]: Half life in dog liver microsomes at 2 uM. Format: ADME, Canis lupus familiaris.
Series [31] in a line: Permeability from apical to basolateral side of human Caco2 cells. Type of series: ADME, cell-based. The settings on record: Caco-2, read-out: permeability. In general terms: Caco-2 cells form a polarised layer with tight junctions and transporters.
The target of series [32] is Voltage-gated inwardly rectifying potassium channel KCNH2 (Homo sapiens, UniProt Q12809). Description: Inhibition of human ERG channel.
Voltage-gated inwardly rectifying potassium channel KCNH2, sequence (Q12809 whole entry): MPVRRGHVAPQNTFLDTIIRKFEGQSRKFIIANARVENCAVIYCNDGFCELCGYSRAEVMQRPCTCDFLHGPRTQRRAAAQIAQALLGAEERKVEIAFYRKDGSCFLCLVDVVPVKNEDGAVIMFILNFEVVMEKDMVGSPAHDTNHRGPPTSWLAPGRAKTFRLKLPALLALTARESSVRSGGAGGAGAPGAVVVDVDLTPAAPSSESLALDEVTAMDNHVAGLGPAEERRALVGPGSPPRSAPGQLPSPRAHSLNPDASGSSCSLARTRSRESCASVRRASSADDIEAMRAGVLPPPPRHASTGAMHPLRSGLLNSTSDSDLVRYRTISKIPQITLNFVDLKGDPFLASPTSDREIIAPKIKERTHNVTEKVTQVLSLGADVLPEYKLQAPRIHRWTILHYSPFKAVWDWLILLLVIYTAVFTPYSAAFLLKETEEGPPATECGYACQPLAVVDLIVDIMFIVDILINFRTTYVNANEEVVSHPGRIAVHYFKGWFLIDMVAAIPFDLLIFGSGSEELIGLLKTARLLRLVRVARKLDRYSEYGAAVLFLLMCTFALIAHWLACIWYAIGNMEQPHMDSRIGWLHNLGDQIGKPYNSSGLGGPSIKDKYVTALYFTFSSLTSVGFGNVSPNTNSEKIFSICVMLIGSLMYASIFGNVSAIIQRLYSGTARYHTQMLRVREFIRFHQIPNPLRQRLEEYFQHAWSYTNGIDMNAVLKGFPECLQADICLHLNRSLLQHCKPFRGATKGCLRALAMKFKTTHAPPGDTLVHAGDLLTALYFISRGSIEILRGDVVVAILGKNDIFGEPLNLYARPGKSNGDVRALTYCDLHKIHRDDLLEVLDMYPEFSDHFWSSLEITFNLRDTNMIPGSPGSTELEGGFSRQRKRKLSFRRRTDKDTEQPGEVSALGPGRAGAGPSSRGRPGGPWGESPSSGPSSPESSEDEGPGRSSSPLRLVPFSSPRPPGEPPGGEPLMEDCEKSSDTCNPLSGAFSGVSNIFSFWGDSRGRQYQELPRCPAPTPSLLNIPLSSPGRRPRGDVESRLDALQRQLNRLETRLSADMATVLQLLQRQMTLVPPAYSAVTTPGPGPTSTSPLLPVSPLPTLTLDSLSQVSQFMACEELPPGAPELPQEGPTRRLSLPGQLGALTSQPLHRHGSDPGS

5-hydroxytryptamine receptor 2A, sequence (P28223 whole entry): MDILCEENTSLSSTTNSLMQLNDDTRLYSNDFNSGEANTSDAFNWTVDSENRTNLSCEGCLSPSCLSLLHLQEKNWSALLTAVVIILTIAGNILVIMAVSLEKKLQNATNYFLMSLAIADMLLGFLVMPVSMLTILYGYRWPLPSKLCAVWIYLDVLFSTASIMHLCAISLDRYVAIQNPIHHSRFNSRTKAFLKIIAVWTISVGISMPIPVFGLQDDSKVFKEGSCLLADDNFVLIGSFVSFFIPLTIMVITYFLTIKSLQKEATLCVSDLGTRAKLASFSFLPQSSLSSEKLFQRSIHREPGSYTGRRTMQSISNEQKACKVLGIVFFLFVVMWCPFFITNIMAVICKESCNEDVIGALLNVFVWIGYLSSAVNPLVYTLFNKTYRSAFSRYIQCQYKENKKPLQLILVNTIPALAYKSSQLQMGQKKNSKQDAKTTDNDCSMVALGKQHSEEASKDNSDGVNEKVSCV
D(1A) dopamine receptor, sequence (P21728 whole entry): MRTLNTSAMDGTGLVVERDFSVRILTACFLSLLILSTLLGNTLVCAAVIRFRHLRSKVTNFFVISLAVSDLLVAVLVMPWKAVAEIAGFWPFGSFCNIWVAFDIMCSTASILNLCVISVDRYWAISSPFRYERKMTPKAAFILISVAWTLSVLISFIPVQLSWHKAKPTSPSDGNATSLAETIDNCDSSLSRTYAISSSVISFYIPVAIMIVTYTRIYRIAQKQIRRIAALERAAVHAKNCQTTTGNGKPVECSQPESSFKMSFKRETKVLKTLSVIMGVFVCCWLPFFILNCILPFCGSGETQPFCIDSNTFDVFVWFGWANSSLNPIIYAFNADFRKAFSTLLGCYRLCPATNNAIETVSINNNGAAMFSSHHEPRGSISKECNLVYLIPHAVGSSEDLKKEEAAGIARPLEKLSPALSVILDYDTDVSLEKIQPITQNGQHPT

As to `CCOc1nc(NC(=O)C(C)(C)NC(=O)c2ccc3c(C4CCCC4)c(-c4ccc(F)cn4)n(C)c3c2)ccc1/C=C/C(=O)O`, the values for the bioavailability in series [1], in series [6] and in [16] were 69%, 71% and 12%, respectively. For the same compound, the results for the area under the curve (AUC) in [2], in series [5] and in series [20] were 7.2 µM·h, 21 µM·h and 1.2 µM·h, respectively. For the same compound, the half-life (commonly the time needed for the level to fall by half in the phase considered) at 2 µM in [3] came to 1.3 h; in [21] it was 0.217 h; in series [25], 1.5 h; in series [30] it was 3.13 h. Besides, the logD in series [4] and in series [26] was 3.5 throughout. The Vd in series [7] worked out at 0.4 L/kg; in series [14] it was 0.48 L/kg; in series [22], 1.43 L/kg. Also, the half-life in [8] was 0.7 h; in series [11], 2.8 h; in [13], 2.3 h. Moreover, the IC50 – broadly, the concentration at which inhibition is half-maximal – in series [9] is 6000 nM; at Cathepsin G, 6000 nM; in [24] it was 1300 nM; on D(1A) dopamine receptor, 6000 nM. The maximum concentration (Cmax) (as a rule, the highest concentration seen after dosing) in [10] turned out to be 7.2 µM; in series [18] it was 3.6 µM; in [19], 0.44 µM; in series [23], 3.6 µM. The clearance in series [12] was found to be 13.9 mL/min/kg; in series [17] it was 4.6 mL/min/kg; in series [29] it was 13.1 mL/min/kg. Moreover, the values for the EC50 in the series with Hepatitis C virus [15] and in the series with Hepatitis C virus [27] were 5 nM and 23 nM, respectively. Moreover, the Kp (as a rule, the ratio of the level in a tissue or fluid to that in plasma or blood) in series [28] stood at 13.5.
`CCOc1nc(NC(=O)C(C)(C)NC(=O)c2ccc3c(C4CCCC4)c(-c4ncc(Cl)cn4)n(C)c3c2)cnc1/C=C/C(=O)O`: the half-life at 2 µM was 1.82 h in series [3] and 2.3 h in series [25]. For the same compound, the logD in [4] and in series [26] was 3.3 each time. In [9], this compound showed an IC50 of 5200 nM. The EC50 (usually the concentration that produces a half-maximal response) amounted to 12 nM in the series on Hepatitis C virus [15] and 21 nM with Hepatitis C virus [27]. In series [18], this compound had a Cmax of 0.9 µM.
Consider `CCOc1nc(NC(=O)C2(NC(=O)c3ccc4c(C5CCCC5)c(-c5ccc(F)cn5)n(C)c4c3)CCC2)ccc1/C=C/C(=O)O`, for which the values for the bioavailability in series [1], in [6] and in series [16] were 61%, 44% and 44%, respectively. For the same compound, the AUC (as a rule, concentration integrated over time) in series [2] stood at 11 µM·h; in [5] it was 48 µM·h; in series [20], 12 µM·h. The half-life at 2 µM in [3] was 0.95 h; in series [21], 0.433 h; in [25], 1.37 h; in series [30], 2.52 h. Moreover, the Vd was 0.47 L/kg in series [7], 0.36 L/kg in [14] and 0.44 L/kg in series [22]. Besides, the half-life was 2.3 h in series [8], 2.1 h in series [11] and 5.1 h in [13]. Further, the highest concentration (Cmax) in series [10] amounted to 8.6 µM; in [19] it was 3.8 µM; in series [23], 5 µM. Moreover, in series [31], the Papp A→B was found to be 14 ×10⁻⁶ cm/s. Besides, the clearance in series [12] turned out to be 4.6 mL/min/kg; in series [17] it was 1.9 mL/min/kg; in [29] it was 4.9 mL/min/kg. This compound also displayed an IC50 in series [32] of 2100 nM. Also, the 50% effective concentration (EC50) in the series with Hepatitis C virus [15] is 10 nM; in the series with Hepatitis C virus [27], 24 nM. In addition, the log distribution coefficient (logD) (commonly the decadic logarithm of the distribution of all forms, ionised or not, between an organic phase and buffer at a given pH) in series [26] was above 4.7. In addition, the partition ratio (Kp) in series [28] stood at 6.
